# Test results taken from patent publication US11931347B2, “Method of screening for agents for differentiating stem cells” (MINERVA BIOTECHNOLOGIES CORPORATION, priority 2015, dated 2024).
# Legend:
# [1] = tested on: DU145 prostate cancer cells; experiment: cancer cell migration assay with Fabs and N-10 peptide; assay type: cell-based; settings: FIG. 140
# Procedure: (§1) The cancer sub-types that were tested were CHL-1 melanoma (MUC1*^+/NME7^+/NME7-X1^+), A2058 melanoma (MUC1*^+/NME7AB^+/NME7-X1^++), SK-OV-3 ovarian cancer (MUC1*^+/NME7^+/NME7-X1^+), A549 lung cancer (MUC1*^LO), T47D breast cancer (MUC1*^+++/NME7AB^+++/NME7-X1^+++), DU145 (MUC1*^++/NME7AB^+++/NME7-X1^+++) prostate cancer and PC-3 (MUC1*^−/NME7AB^+++/NME7-X1^+++) prostate cancer cells.
# (§2) For the cancer cell migration experiment cancer cells were plated at varying densities into an Oris Cell Migration Assay Collagen-1 coated 96-well plate (Platypus Technologies LLC, Madison, Wis.). The Collagen-1 coated 96-well plate incorporates a specific vacuum plug which attaches to the bottom of each well, creating an area in which the cells cannot grow into. Once the cells have been plated at high densities into each well, they are allotted an 18-24 hour time period to attach to the bottom of the wells. Post-24 hour plugs are removed from the plate and then small molecule analogs are added to the wells. Images are taken of each well and represent time 0 (T=0) for each well. Images are taken of the wells at the 24, 48, 72, 96 and 120 hour time points. […] Images are imported into ImageJ (Rasband, W. S., ImageJ, U. S. National Institutes of Health, Bethesda, Md., USA, http://imagej.nih.gov/ij/, 1997-2016.) and the area remaining free of cells is calculated. […]
# [2] = tested on: PC-3 prostate cancer cells; experiment: as above; assay type: cell-based; settings: FIG. 140
# Procedure: as §1, §2
# T47D breast cancer cells = experiment: cancer cell migration, invasion assay (Platypus/Oris system); assay type: cell-based, human; settings: FIG. 140
# Procedure: We then tested an expanded panel of agents, including agents known to inhibit cancer growth or migration (FIG. 17) (Horm et al., 2012; Meng & Yue, 2014; Zhen et al., 2014), which is characteristic of aggressive or metastatic cancers. We also synthesized a series of novel small molecules, tested them in the stem cell drug screening assay, and then synthesized analogs of the best hits. These small molecules are pictured in FIGS. 18-27. Both the known compounds and the novel compounds were tested in the stem cell drug screening assay. The effects of the small molecules on naïve versus primed state stem cells are shown in the photographs of FIGS. 29-72. The small molecules pictured in FIGS. 17-27 and the biologicals were also tested in a cancer cell migration assay. A structure activity relationship table is seen in FIG. 28. Potent cancer cell migration is characteristic of cancer cell invasion of other tissues and of metastasis. Typical migration assays involve coating a cell culture plate with fibronectin, collagen or the like, plating cancer cells and making a scar across through the cells and measuring the time it takes for the cancer cells to invade the void space. An alternative approach that gives more reliable data is the Platypus System which is a special multi-well cell culture plate with a juxtaposed set of plugs that block off a circle in the center of each well. Cancer cells are plated while the plugs are in place, then they are removed after the cells attach to the plate surface. […] A bar graph summarizing the results of the known anti-migration compounds compared to the anti-MUC1* Fab E6 and the first few small molecules synthesized is shown in FIG. 73. The effect of two novel small molecules MN1186 and MN1194, compared to the known anti-migration molecule SU11274, is shown in FIG. 75A-75U. FIG. 75V is a graph showing the measured inhibition of cancer cell migration at time 0, 24 hours or 48 hours for a number of compounds. […] FIG. 75X is a graph showing how IC50's of the small molecules of the invention were measured and calculated.
# Percent inhibition of cancer cell migration was performed in a wound healing assay. The Percent area that the invading cancer cells occupied, in the presence of a drug candidate compared to the controls, was quantified by Image J cell software which enables cell counting from photographs. IC50's were calculated by performing migration experiments at several compound concentrations and then applying Hill's equation. Inhibition of cancer cell proliferation was quantified by automated cell counting in the presence or absence of a drug candidate. Here, the potency of the drug candidate was simply scored 4 for the highest degree of inhibition and 0 for the lowest. […] The effect of each drug candidate was scored 0-4, with 4 being the highest in inhibiting cell proliferation (FIG. 28).
# For the cancer cell migration experiment cancer cells were plated at varying densities into an Oris Cell Migration Assay Collagen-1 coated 96-well plate (Platypus Technologies LLC, Madison, Wis.). The Collagen-1 coated 96-well plate incorporates a specific vacuum plug which attaches to the bottom of each well, creating an area in which the cells cannot grow into. Once the cells have been plated at high densities into each well, they are allotted an 18-24 hour time period to attach to the bottom of the wells. Post-24 hour plugs are removed from the plate and then small molecule analogs are added to the wells. Images are taken of each well and represent time 0 (T=0) for each well. Images are taken of the wells at the 24, 48, 72, 96 and 120 hour time points. Data analysis is conducted using the images taken at these specific time point. Images are imported into ImageJ (Rasband, W. S., ImageJ, U. S. National Institutes of Health, Bethesda, Md., USA, http://imagej.nih.gov/ij/, 1997-2016.) and the area remaining free of cells is calculated. […]
# [3] = tested on: MUC1* extracellular domain - NME1 dimers / NME7AB interaction; experiment: direct binding (gold nanoparticle) assay of MUC1*-NME interaction; parameters: species or system human; settings: previously shown
# From the text: WO2009/042815 discloses that in a direct binding assay a series of carboline molecules inhibited the interaction between the extracellular domain of MUC1* and NME proteins, especially NME1 dimers and NME7AB. […] We tested a panel of ten small molecules, including three carbolines (FIG. 1), and biologicals for their ability to inhibit naïve stem cell pluripotency or growth compared to primed state stem cells.
# Most of the novel compounds of the invention are carbolines or carboline-like molecules. […] However, in our nanoparticle assay, we can only determine that a compound disrupts the interaction between MUC1* extracellular domain peptide and NME1 dimers or NME7AB. We cannot tell if the compound does so by binding to MUC1* or its ligand. Recall that our compound hits are first identified in the stem cell drug screening assay for their ability to inhibit stem cell pluripotency or proliferation. […]
# Recall that we had previously shown that some carbolines inhibited the binding of ligands NME1 or NME7AB to the extracellular domain of the MUC1* growth factor receptor. The assay we used was a gold nanoparticle assay that only gives a readout when the targeted interaction is disrupted, so it could not determine whether the carboloines disrupted binding of MUC1* to its ligands by binding to the ligand, NME7AB, or to MUC1*. […]
substance,measurement,setting,value
N-10 peptide: truncated MUC1* extracellular domain peptide QFNQYKTEAASRYNLTISDVSVSDVPFPFSAQSGA (SEQ ID NO:4) (N-10 peptide of PSMGFR in which ten amino acids at the N-terminus has been removed),inhibition of migration of DU145 prostate cancer cells by Fabs and peptide,[1],inhibited migration
same,inhibition of migration of PC-3 cells by Fabs and peptide,[2],only the N-10 peptide inhibited migration
same,inhibition of migration of T47D cells by Fabs and peptide,T47D breast cancer cells,inhibited migration
same,competitive inhibition of NME ligand binding to MUC1* extracellular domain,[3],inhibits their binding to their cognate receptors including the MUC1* extracellular domain
